The source of these data is patent US4478833A, “Trisubstituted pyrimido[5,4-d]pyrimidines and salts thereof” (Dr. Karl Thomae Gesellschaft mit beschrankter Haftung, priority 1980, dated 1984).

Series [1] relates to thrombocyte aggregation (platelet-rich plasma of healthy test persons). Kind of series: Collagen-induced thrombocyte (platelet) aggregation in platelet-rich plasma, method of Born and Cross. The following applies: sodium citrate, 10 minutes incubation at 37° C., read-out: EC50 (50% change in optical density, inhibition of collagen-induced aggregation). Format: cell-based, human. The procedure: Thrombocyte aggregation was measured according to the method of Born and Cross [J. Physiol. 170, 397 (1964)]in platelet-rich plasma of healthy test persons. To inhibit coagulation, the blood was mixed with sodium citrate in a volume ration of 1:10.
After addition of the aggregation-inducing substance, the rate of decrease in optical density of the platelet suspension is measured photometrically and recorded. The rate of aggregation was determined from the angle of inclination of the density curve. The point on the curve at which there was the greatest translucence served for calculating the optical density.
The quantity of collagen was chosen as small as possible, but sufficient so that an irreversible reaction was obtained. Commercial collagen of Hormonchemie, Munich, was used. Before the collagen was added, the plasma was incubated for 10 minutes with the test substance at 37° C.
An EC50 corresponding to a 50% change in the optical density with respect to aggregation inhibition was calculated graphically from the measurement values obtained.

Series [2] in a line: Acute toxicity in mice after oral administration. The series is classed as in vivo. The conditions noted are these: mouse, in vivo, po, dose of 250 mg/kg, observation time 14 days. As for the experimental part:
(§1) The acute toxicity of the test compounds was determined on groups of 6 to 10 mice after oral administration of a dose of 250 mg/kg (observation time: 14 days). For this purpose, the substances were suspended in 2% methyl cellulose, some water was subsequently added and the test substance was administered to the conscious animals by esophageal tube.

The next series relates to mice. The experiment in a line: Acute toxicity in mice after oral administration. The following applies: 250 mg/kg p.o., observation time 14 days. The series is classed as in vivo. The procedure:
as §1

Read-outs that look alike come from different tables or passages of the source.

Usually EC50 stands for the concentration that produces a half-maximal response. What is called LD50 is the dose at which mortality reaches 50%. Lower therefore signals a more toxic substance. Regarding `[O-][S+]1CCN(c2nc(N(CCO)CCO)nc3c(OCCCc4ccccc4)ncnc23)CC1` [P, 2-Diethanolamino-4-(1-oxido-thiomorpholino)-8-(3-phenylpropoxy)-pyrimido[5,4-d]pyrimidine], the EC50 in series [1] (Homo sapiens, 10 min) came to 360 nM. Also, the LD50 at 336 h in series [2] was above 250 mg/kg. The “animals died (out of animals tested)” value with mice was 0 out of 6.
On the same counts, the results for `[O-][S+]1CCN(c2nc(NCCO)nc3c(NCc4ccc(Cl)cc4)ncnc23)CC1` [K, 8-(4-Chlorobenzyl-amino)-2-(2-hydroxyethyl-amino)-4-(1-oxido-thiomorpholino)-pyrimido[5,4-d]pyrimidine] are 280 nM, above 250 mg/kg and 0 out of 10.
Consider `[O-][S+]1CCN(c2nc(N(CCO)CCO)nc3c(N4CCCCC4)ncnc23)CC1` [L, 2-Diethanolamino-4-(1-oxido-thiomorpholino)-8-piperidino-pyrimido[5,4-d]pyrimidine], for which, in series [1] (Homo sapiens, 10 min), the EC50 was determined as 690 nM. Moreover, in series [2], the LD50 at 336 h was above 250 mg/kg. Also, the “animals died (out of animals tested)” value with mice is recorded as 0 out of 10.
Turning to `COCCN(CCO)c1nc(N2CC[S+]([O-])CC2)c2ncnc(OCc3ccccc3)c2n1` [O, 8-Benzyloxy-2-[N-(2-hydroxy-ethyl)-N-(2-methoxy-ethyl)amino]-4-(1-oxido-thiomorpholino)-pyrimido[5,4-d]pyrimidine], the EC50 in series [1] (Homo sapiens, 10 min) came out at 300 nM. The LD50 at 336 h in series [2] is above 250 mg/kg. Further, the “animals died (out of animals tested)” value with mice is given as 0 out of 6.
For the compound `[O-][S+]1CCN(c2nc(NCCO)nc3c(SC4CCCCC4)ncnc23)CC1` [B, 8-Cyclohexylthio-2-(2-hydroxyethyl-amino)-4-(1-oxido-thiomorpholino)-pyrimido[5,4-d]pyrimidine], the EC50 in series [1] (Homo sapiens, 10 min) worked out at 48 nM. The compound further displayed an LD50 at 336 h in series [2] above 250 mg/kg. The “animals died (out of animals tested)” value in the series with mice was 0 out of 10.
`CSc1ccc(C(C)Sc2ncnc3c(N4CC[S+]([O-])CC4)nc(NCCO)nc23)cc1` (stereo not drawn) [F, 2-(2-Hydroxyethyl-amino)-8-(α-methyl-4-methylthiobenzylthio)-4-(1-oxido-thiomorpholino)-pyrimido[5,4-d]pyrimidine]: in series [1] (Homo sapiens, 10 min), the EC50 worked out at 29 nM. Further, in series [2], the LD50 at 336 h was above 250 mg/kg. Besides, the “animals died (out of animals tested)” value with mice is 0 out of 6.
Turning to `CC(C)CCOc1ncnc2c(N3CC[S+]([O-])CC3)nc(N(CCO)CCO)nc12` [M, 2-Diethanolamino-8-isopentoxy-4-(1-oxido-thiomorpholino)-pyrimido[5,4-d]pyrimidine], in series [1] (Homo sapiens, 10 min), the EC50 came out at 460 nM. This compound gave an LD50 at 336 h in series [2] above 250 mg/kg. Besides, the “animals died (out of animals tested)” value in the series with mice is recorded as 0 out of 6.
Turning to `CCCCN(CC)c1ncnc2c(N3CC[S+]([O-])CC3)nc(NCCO)nc12` [H, 8-(N-Ethyl-butylamino)-2-(2-hydroxyethyl-amino)-4-(1-oxidothiomorpholino)-pyrimido[5,4-d]pyrimidine], the EC50 in series [1] (Homo sapiens, 10 min) stood at 300 nM. The 50% lethal dose (LD50) at 336 h in series [2] is above 250 mg/kg. Besides, in the series on mice, the “animals died (out of animals tested)” value is 0 out of 6.
Regarding `[O-][S+]1CCN(c2nc(NCCO)nc3c(SCc4ccccc4)ncnc23)CC1` [C, 8-Benzylthio-2-(2-hydroxyethyl-amino)-4-(1-oxido-thiomorpholino)-pyrimido[5,4-d]pyrimidine], the 50% effective concentration (EC50) in series [1] (Homo sapiens, 10 min) amounted to 21 nM. For the same compound, the LD50 at 336 h in series [2] is above 250 mg/kg. Also, in the series on mice, the “animals died (out of animals tested)” value is listed as 0 out of 10.
For `[O-][S+]1CCN(c2nc(N(CCO)CCO)nc3c(SCc4ccccc4)ncnc23)CC1` [D, 8-Benzylthio-2-diethanolamino-4-(1-oxido-thiomorpholino)pyrimido[5,4-d]pyrimidine], in series [1] (Homo sapiens, 10 min), the 50% effective concentration (EC50) stood at 62 nM. The same compound had an LD50 at 336 h in series [2] above 250 mg/kg. Moreover, the “animals died (out of animals tested)” value in the series on mice is 0 out of 10.
For the compound `CCCSc1ncnc2c(N3CC[S+]([O-])CC3)nc(NCCO)nc12` [A, 2-(2-Hydroxyethyl-amino)-4-(1-oxido-thiomorpholino)-8-propylthio-pyrimido[5,4-d]pyrimidine], the EC50 in series [1] (Homo sapiens, 10 min) came out at 310 nM. The compound also had an LD50 at 336 h in series [2] above 250 mg/kg. Besides, the “animals died (out of animals tested)” value in the series on mice is 0 out of 6.
In the case of `[O-][S+]1CCN(c2nc(NCCO)nc3c(SCc4ccco4)ncnc23)CC1` [G, 8-Furfurylthio-2-(2-hydroxyethyl-amino)-4-(1-oxidothiomorpholino)-pyrimido[5,4-d]pyrimidine], the EC50 in series [1] (Homo sapiens, 10 min) is 52 nM. For the same compound, the median lethal dose (LD50) at 336 h in series [2] is above 250 mg/kg. Moreover, in the series with mice, the “animals died (out of animals tested)” value was 0 out of 6.
In the case of `[O-][S+]1CCN(c2nc(N(CCO)CCO)nc3c(OCc4ccccc4)ncnc23)CC1` [N, 8-Benzyloxy-2-diethanolamino-4-(1-oxido-thiomorpholino)-pyrimido[5,4-d]pyrimidine], in series [1] (Homo sapiens, 10 min), the EC50 is 230 nM. Further, the LD50 at 336 h in series [2] is above 250 mg/kg. Further, the “animals died (out of animals tested)” value in the series on mice is given as 0 out of 10.
For the compound `COCCN(CCO)c1nc(N2CC[S+]([O-])CC2)c2ncnc(SCc3ccccc3)c2n1` [Compound E, 8-Benzylthio-2-[N-(2-hydroxy-ethyl)-N-(2-methoxyethyl)-amino]-4-(1-oxido-thiomorpholino)-pyrimido[5,4-d]pyrimidine], the EC50 in series [1] (Homo sapiens, 10 min) came to 52 nM. The LD50 at 336 h in series [2] was above 250 mg/kg. The “animals died (out of animals tested)” value in the series on mice was 0 out of 10.
Consider `CC(Nc1ncnc2c(N3CC[S+]([O-])CC3)nc(NCCO)nc12)c1ccccc1` [I, 2-(2-Hydroxyethyl-amino)-4-(1-oxido-thiomorpholino)-8-(L-1-phenylethyl-amino)-pyrimido[5,4-d]pyrimidine], for which, in series [1], the EC50 was determined as 28 nM.
